Assay results from the supplement of paper PMC10307832.

Key:
Test in all cases: relative viability (nuclei count vs DMSO), 5 days (fraction); higher = more cells survive
[1] = system: NCI-H650
Summary of the method: (§1)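 Lung cancer cell lines in 1536-well plates were dosed by pin tool the day after seeding, either with one drug alone or with a fixed anchor-drug dose plus five library-drug doses (not always all listed) in √10 steps. After 5 days, cells were fixed and their nuclei stained in one step (final 0.05% Triton X-100, 1% formaldehyde, 1 ug/ml Hoechst), then counted on 4× images. Relative viability is the nuclei count in treated wells divided by that in vehicle wells. Values are medians of duplicate plates.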

[2] = system: HCC-44
Summary of the method: as §1

[3] = system: SK-MES-1
Summary of the method: as §1

[4] = system: A-427
Summary of the method: as §1

[5] = system: NCI-H522
Summary of the method: as §1

[6] = system: NCI-H1666
Summary of the method: as §1

[7] = system: NCI-H1975
Summary of the method: as §1

[8] = system: COR-L23
Summary of the method: as §1

[9] = system: HCC-827
Summary of the method: as §1

[10] = system: HCC-15
Summary of the method: as §1

[11] = system: NCI-H520
Summary of the method: as §1

[12] = system: NCI-H596
Summary of the method: as §1

[13] = system: NCI-H1437
Summary of the method: as §1

[14] = system: NCI-H1792
Summary of the method: as §1

[15] = system: COR-L 105
Summary of the method: as §1

[16] = system: NCI-H838
Summary of the method: as §1

[17] = system: LK-2
Summary of the method: as §1

[18] = system: NCI-H441
Summary of the method: as §1

[19] = system: LCLC-103H
Summary of the method: as §1

[20] = system: EKVX
Summary of the method: as §1

[21] = system: 201T
Summary of the method: as §1

[22] = system: SW 900
Summary of the method: as §1

[23] = system: HARA
Summary of the method: as §1

[24] = system: NCI-H23
Summary of the method: as §1

Clc1ccc(Nc2nnc(Cc3ccncc3)c3ccccc23)cc1 [Vatalanib] + CCNC(=O)c1noc(-c2cc(C(C)C)c(O)cc2O)c1-c1ccc(CN2CCOCC2)cc1 [Luminespib] (partner 0.01 µM) gave a relative viability ([1]; first compound 0.04 µM) of 0.821, a relative viability ([1]; first compound 0.1265 µM) of 0.628 and a relative viability ([1]; first compound 1.265 µM) of 0.736. For the same compound, the relative viability ([1]; first compound 4 µM) was 0.781, the relative viability ([2]; first compound 0.04 µM) was 1.24 and the relative viability ([2]; first compound 0.1265 µM) was 1.01. It also gave a relative viability ([2]; first compound 0.4 µM) of 0.953, a relative viability ([2]; first compound 1.265 µM) of 0.927 and a relative viability ([2]; first compound 4 µM) of 1.05. For the same compound, the relative viability ([3]; first compound 0.04 µM) was 0.745, the relative viability ([3]; first compound 0.1265 µM) was 0.845 and the relative viability ([3]; first compound 0.4 µM) was 1.05. The relative viability ([3]; first compound 1.265 µM) was 0.679, the relative viability ([3]; first compound 4 µM) was 0.6 and the relative viability ([4]; first compound 0.04 µM) was 0.861. The relative viability ([4]; first compound 0.1265 µM) was 0.909, the relative viability ([4]; first compound 0.4 µM) was 1.03 and the relative viability ([4]; first compound 1.265 µM) was 0.927. The relative viability ([4]; first compound 4 µM) was 0.948, the relative viability ([5]; first compound 0.04 µM) was 1.02 and the relative viability ([5]; first compound 0.1265 µM) was 1.23. The relative viability ([5]; first compound 0.4 µM) was 1.2, the relative viability ([5]; first compound 1.265 µM) was 1.15 and the relative viability ([5]; first compound 4 µM) was 1.1. For the same compound, the relative viability ([6]; first compound 0.04 µM) was 0.986, the relative viability ([6]; first compound 0.1265 µM) was 0.991 and the relative viability ([6]; first compound 0.4 µM) was 0.996. It also gave a relative viability ([6]; first compound 1.265 µM) of 1.01, a relative viability ([6]; first compound 4 µM) of 1.04 and a relative viability ([7]; first compound 0.04 µM) of 0.154. It also gave a relative viability ([7]; first compound 0.1265 µM) of 0.238, a relative viability ([7]; first compound 0.4 µM) of 0.237 and a relative viability ([7]; first compound 1.265 µM) of 0.29. The relative viability ([7]; first compound 4 µM) was 0.177, the relative viability ([8]; first compound 0.04 µM) was 0.715 and the relative viability ([8]; first compound 0.1265 µM) was 0.666. It also gave a relative viability ([8]; first compound 0.4 µM) of 0.835, a relative viability ([8]; first compound 1.265 µM) of 0.646 and a relative viability ([8]; first compound 4 µM) of 0.588. The relative viability ([9]; first compound 0.04 µM) was 0.53, the relative viability ([9]; first compound 0.1265 µM) was 0.614 and the relative viability ([9]; first compound 0.4 µM) was 0.494. The relative viability ([9]; first compound 1.265 µM) was 0.638, the relative viability ([9]; first compound 4 µM) was 0.611 and the relative viability ([10]; first compound 0.04 µM) was 0.42. The relative viability ([10]; first compound 0.1265 µM) was 0.457, the relative viability ([10]; first compound 0.4 µM) was 0.181 and the relative viability ([10]; first compound 1.265 µM) was 0.234. For the same compound, the relative viability ([10]; first compound 4 µM) was 0.235, the relative viability ([11]; first compound 0.04 µM) was 0.199 and the relative viability ([11]; first compound 0.1265 µM) was 0.19. The relative viability ([11]; first compound 0.4 µM) was 0.22, the relative viability ([11]; first compound 1.265 µM) was 0.221 and the relative viability ([11]; first compound 4 µM) was 0.246. For the same compound, the relative viability ([12]; first compound 0.04 µM) was 0.955, the relative viability ([12]; first compound 0.1265 µM) was 0.941 and the relative viability ([12]; first compound 0.4 µM) was 0.953. It also gave a relative viability ([12]; first compound 1.265 µM) of 1.01, a relative viability ([12]; first compound 4 µM) of 1.19 and a relative viability ([13]; first compound 0.04 µM) of 1.21. For the same compound, the relative viability ([13]; first compound 0.1265 µM) was 1.19, the relative viability ([13]; first compound 0.4 µM) was 1.13 and the relative viability ([13]; first compound 1.265 µM) was 1.12. For the same compound, the relative viability ([13]; first compound 4 µM) was 1.14, the relative viability ([14]; first compound 0.04 µM) was 0.475 and the relative viability ([14]; first compound 0.1265 µM) was 0.492. The relative viability ([14]; first compound 0.4 µM) was 0.4, the relative viability ([14]; first compound 1.265 µM) was 0.564 and the relative viability ([14]; first compound 4 µM) was 0.387. The relative viability ([15]; first compound 0.04 µM) was 0.814, the relative viability ([15]; first compound 0.1265 µM) was 0.7 and the relative viability ([15]; first compound 0.4 µM) was 0.877. For the same compound, the relative viability ([15]; first compound 1.265 µM) was 0.843, the relative viability ([15]; first compound 4 µM) was 0.74 and the relative viability ([16]; first compound 0.04 µM) was 0.326. For the same compound, the relative viability ([16]; first compound 0.1265 µM) was 0.267, the relative viability ([16]; first compound 0.4 µM) was 0.244 and the relative viability ([16]; first compound 1.265 µM) was 0.305. The relative viability ([16]; first compound 4 µM) was 0.378, the relative viability ([17]; first compound 0.04 µM) was 0.185 and the relative viability ([17]; first compound 0.1265 µM) was 0.217. The relative viability ([17]; first compound 0.4 µM) was 0.188, the relative viability ([17]; first compound 1.265 µM) was 0.202 and the relative viability ([17]; first compound 4 µM) was 0.182. For the same compound, the relative viability ([18]; first compound 0.04 µM) was 0.367, the relative viability ([18]; first compound 0.1265 µM) was 0.251 and the relative viability ([18]; first compound 0.4 µM) was 0.382. For the same compound, the relative viability ([18]; first compound 1.265 µM) was 0.377, the relative viability ([18]; first compound 4 µM) was 0.354 and the relative viability ([19]; first compound 0.04 µM) was 0.961. The relative viability ([19]; first compound 0.1265 µM) was 0.878, the relative viability ([19]; first compound 0.4 µM) was 0.967 and the relative viability ([19]; first compound 1.265 µM) was 0.969. The relative viability ([19]; first compound 4 µM) was 1, the relative viability ([20]; first compound 0.04 µM) was 0.904 and the relative viability ([20]; first compound 0.1265 µM) was 0.805. For the same compound, the relative viability ([20]; first compound 0.4 µM) was 0.876, the relative viability ([20]; first compound 4 µM) was 0.852 and the relative viability ([21]; first compound 0.04 µM) was 1.07. For the same compound, the relative viability ([21]; first compound 0.1265 µM) was 1.05, the relative viability ([21]; first compound 0.4 µM) was 1.13 and the relative viability ([21]; first compound 1.265 µM) was 1.04. The relative viability ([21]; first compound 4 µM) was 1.13, the relative viability ([22]; first compound 0.1265 µM) was 0.178 and the relative viability ([22]; first compound 0.4 µM) was 0.224. For the same compound, the relative viability ([22]; first compound 1.265 µM) was 0.166, the relative viability ([22]; first compound 4 µM) was 0.192 and the relative viability ([23]; first compound 0.04 µM) was 0.682. For the same compound, the relative viability ([23]; first compound 0.1265 µM) was 0.617, the relative viability ([23]; first compound 0.4 µM) was 0.669 and the relative viability ([23]; first compound 1.265 µM) was 0.738. It also gave a relative viability ([23]; first compound 4 µM) of 0.591, a relative viability ([24]; first compound 0.04 µM) of 0.229 and a relative viability ([24]; first compound 0.1265 µM) of 0.213. The relative viability ([24]; first compound 0.4 µM) was 0.227, the relative viability ([24]; first compound 1.265 µM) was 0.19 and the relative viability ([24]; first compound 4 µM) was 0.205.
